Tested on: HT-1080 cells
Assay: Lethality of commercially available CIL41/70 structural analogs
Format: cell-based
Conditions: Homo sapiens, tested once in technical triplicates
Method: 1,000 cells per 36 μl were seeded in each well in 384-well plates. Lethal compounds were dissolved, and a twofold, 12-point dilution series was prepared in DMSO. Compound solutions were further diluted with media at 1:25, and 4 μl per well of the diluted solutions was added to cell cultures immediately after cells were seeded. […] When other cell-death-modulating compounds (100 nM sodium selenite, 1 μM cerivastatin, 100 μg/mL mevalonic acid) were used in cotreatments, they were supplemented to cell culture for 24 h before lethal compounds were added to cell culture, after which cells were further incubated for 24 h at 37° C. under 5% CO2. On the day of the viability measurement, we added 10 μl per well of 50% Alamar Blue diluted in media (Life Technologies) and further incubated the cells at 37° C. for 6 h. Fluorescence intensity (excitation/emission: 530/590) was measured with a Victor 3 plate reader (PerkinElmer), and the normalized viability was calculated as VL=(IL−I0)/(IV−I0), where VL, I0, IV, and IL are the normalized viability and the raw fluorescence intensities from the wells containing media, cells treated with a vehicle (negative control), and cells with the lethal compound (L), respectively. When the effect of a chemical modulator (M) on L was calculated, we instead used the equation VL|M=(IM,L−I0)/(IM,V−I0), where VL|M, IM,L and IM,V are the normalized viability, and fluorescence intensity from cells treated with […], respectively. The viability was typically measured in biological triplicate unless otherwise specified. A representative dose-response curve, the mean and standard error of normalized viability from one replicate were plotted. HT-1080 viability after modulator treatments corresponding to FIG. 3C and FIGS. 5E-5F is available in FIGS. 19A-19C.
Their lethality was tested once in HT-1080 cells in technical triplicates.

Row | Compound | EC50
1 | CC(C)(C)c1ccc(OCC(=O)O/N=C(\N)Cc2ccc([N+](=O)[O-])cc2)cc1 [CB7] | > 20 µg/mL
2 | COc1ccc(C/C(N)=N/OC(=O)Cc2ccc(Cl)cc2)cc1OC [CB8] | > 20 µg/mL
3 | N/C(Cc1ccc([N+](=O)[O-])cc1)=N\OC(=O)Cc1ccc(Cl)cc1 [CB9] | > 20 µg/mL
4 | COc1ccc(C/C(N)=N/OC(=O)COc2cccc3ccccc23)cc1 [CB10] | > 20 µg/mL
5 | COc1ccc(C/C(N)=N/OC(=O)Cc2ccc(Cl)cc2)cc1 [CB11] | > 20 µg/mL
